For one assay, the target named is T1, human FPTase (Homo sapiens, UniProt P49354+P49356).
T1 construct: codons for Glutamic acid-Glutamic acid-Phenylalanine-stop were placed after the last codon for the β subunit; made in house; host or cells: E. coli DH5a
In words: Assay of compounds for FPTase inhibitory activity, once purified human FPTase. It is filed as biochemical.

For a further assay, the target named is T2, Bovine brain FTase (Bos taurus, UniProt P29702+P49355).
T2 construct: an assay employing bovine brain FPTase; from tissue; host or cells: bovine brain
In words: Assay of compounds for FPTase inhibitory activity, bovine brain FPTase. It is filed as biochemical. The method, then:
The purified, recombinantly expressed, mammalian FPTase is employed in an assay to determine the inhibitory activity against FPTase mediated farnesylation of Ras by various pharmaceutical compounds. […] The purified mammalian FPTase is then added to the assay mixture and the assay mixture is incubated for a period of time such as 10-30 minutes at 30° C. The assay mixture is then quenched and the Ras protein is separated from free FPP by techniques well known in the art. […] This value may be compared to the relative value of the amount of Ras farnesylated in the absence of the pharmaceutical agent and to the relative value of the amount of Ras farnesylated in the presence of other pharmaceutical agents.
[^3 H]Farnesyl diphosphate (FPP) (20 Ci/mmol) was purchased from New England Nuclear. In general, inhibitory activity assays were carried out at 30° C. A typical assay reaction contained (in a final volume of 50 μL): [^3 H]farnesyl diphosphate, Ras protein (3.5 μM), 50 mM HEPES, pH 7.5, 5 mM MgCl2, 1 mM dithiothreitol, and the compound to be assayed. After thermally preequilibrating the assay mixture, the reaction was initiated by the addition of the purified mammalian FPTase and the reaction was stopped at timed intervals by the addition of 1M HCl in ethanol (1 mL). The quenched reactions were allowed to stand for 15 minutes. After adding 2 mL of 100% ethanol, the mixtures were vacuum filtered through Whatman GF/C filters. Filters were washed four times with 2 mL aliquots of 100% ethanol, mixed with scintillation fluid (10 mL) and then counted in a Beckmann LS3801 scintillation counter.

[1] abbreviates: Human FTase, Ras protein 3.5 μM, pH 7.5, 30° C, * = alternative substrates (CVIM, CVIL, FPP).
[2] abbreviates: Bovine brain FTase, Ras protein 3.5 μM, pH 7.5, 30° C, * = alternative substrates (CVIM, CVIL, FPP).

Where two headings read alike, the source gives them in different places.

In general, IC50 refers to the concentration that gives 50% inhibition. For the compound `CC(C)=CCC/C(C)=C/CC/C(C)=C/C(O)P(=O)(O)O` (racemic) [Compound A, (R,S)[1hydroxy-(E,E)-3,7,11-trimethyl-2,6,10-dodeca-trienyl]phosphonic acid], the IC50 on human FPTase was 18 nM; at Bovine brain FTase it was 20 nM.

With `CC(C)=CCC/C(C)=C/CC/C(C)=C/CO[P@@](=O)(O)OP(=O)(O)O` (stereo in doubt) [FPP, farnesyl diphosphate], the values for the IC50 against human FPTase and at Bovine brain FTase were 250 nM and 200 nM, respectively.

On to `CC(C)=CCC/C(C)=C/CC/C(C)=C/CC/C(C)=C/COP(=O)(O)OP(=O)(O)O` [GGPP, geranylgeranyl-diphosphate], for which the values for the IC50 at human FPTase and against Bovine brain FTase were 240 nM and 200 nM, respectively.

For “cysteinylisolleucinyl-phenylalaninyl-methionine [CIFM]”, the concentration for half-maximal inhibition (IC50) was 17 nM against human FPTase (setting [1]) and 10 nM against Bovine brain FTase (setting [2]).

With “cysteinylvalinyl-isolleucinyl-leucine (CVIL)”, the IC50 turned out to be 6200 nM in the assay with human FPTase (setting [1]) and 20000 nM in the assay with Bovine brain FTase (setting [2]).
